From patent publication US20230219965A1 (KSQ Therapeutics, Inc., priority 2020, published 2023) come the findings set out here.

The assay deals with USP1/UAF1 enzyme (Homo sapiens, UniProt O94782). Briefly: USP1/UAF1 deubiquitination assay (ubiquitin-rhodamine 110 substrate). The note with it: read-out: USP1 IC50 (Ub-Rho). The format is biochemical. Here is the method: Certain Compounds of the Disclosure were assessed for USP1/UAF1 activity in a Ubiquitin Rhodamine assay modified from those described previously.
Chain of USP1/UAF1 enzyme (O94782 whole entry): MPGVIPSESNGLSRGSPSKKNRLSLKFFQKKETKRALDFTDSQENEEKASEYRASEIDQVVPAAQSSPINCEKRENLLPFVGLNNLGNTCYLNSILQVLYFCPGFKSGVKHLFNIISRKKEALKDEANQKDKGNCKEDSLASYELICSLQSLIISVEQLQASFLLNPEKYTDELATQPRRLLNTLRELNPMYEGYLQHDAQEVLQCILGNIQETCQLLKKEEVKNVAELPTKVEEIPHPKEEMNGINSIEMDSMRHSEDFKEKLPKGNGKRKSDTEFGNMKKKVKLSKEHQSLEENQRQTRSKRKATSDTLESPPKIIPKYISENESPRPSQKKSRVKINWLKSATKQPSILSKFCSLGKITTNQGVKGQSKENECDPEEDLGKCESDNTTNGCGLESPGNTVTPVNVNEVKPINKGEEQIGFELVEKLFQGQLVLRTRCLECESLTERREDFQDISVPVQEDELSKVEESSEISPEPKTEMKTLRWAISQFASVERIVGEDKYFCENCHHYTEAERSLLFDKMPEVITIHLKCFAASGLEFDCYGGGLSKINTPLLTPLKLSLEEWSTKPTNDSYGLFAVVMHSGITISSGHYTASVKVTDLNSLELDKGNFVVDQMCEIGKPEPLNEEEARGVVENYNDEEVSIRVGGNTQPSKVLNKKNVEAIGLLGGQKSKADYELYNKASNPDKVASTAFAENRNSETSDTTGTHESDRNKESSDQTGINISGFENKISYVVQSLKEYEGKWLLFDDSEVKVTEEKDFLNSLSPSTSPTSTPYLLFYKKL
Chain of USP1/UAF1 enzyme (Q8TAF3 whole entry partner): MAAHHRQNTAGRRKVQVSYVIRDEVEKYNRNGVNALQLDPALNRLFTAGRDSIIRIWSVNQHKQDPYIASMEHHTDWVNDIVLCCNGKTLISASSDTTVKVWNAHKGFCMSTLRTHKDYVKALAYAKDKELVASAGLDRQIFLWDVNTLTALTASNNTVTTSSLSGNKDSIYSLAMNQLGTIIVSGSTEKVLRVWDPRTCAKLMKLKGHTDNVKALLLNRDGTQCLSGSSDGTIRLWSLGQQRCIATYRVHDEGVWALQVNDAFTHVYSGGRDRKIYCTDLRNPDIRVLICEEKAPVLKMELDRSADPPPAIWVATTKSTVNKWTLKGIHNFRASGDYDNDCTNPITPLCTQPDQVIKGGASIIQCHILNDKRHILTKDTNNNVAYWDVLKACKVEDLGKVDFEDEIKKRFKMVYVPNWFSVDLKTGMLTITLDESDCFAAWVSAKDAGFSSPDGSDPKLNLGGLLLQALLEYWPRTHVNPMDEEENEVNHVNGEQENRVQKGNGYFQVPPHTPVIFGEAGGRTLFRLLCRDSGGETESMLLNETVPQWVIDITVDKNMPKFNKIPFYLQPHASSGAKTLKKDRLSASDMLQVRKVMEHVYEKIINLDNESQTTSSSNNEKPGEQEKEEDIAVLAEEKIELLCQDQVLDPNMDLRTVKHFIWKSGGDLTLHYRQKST
Deubiquitinase activity was measured using ubiquitin-rhodamine 110 as a substrate. Cleavage of the amide bond between rhodamine and the c-terminal glycine of ubiquitin yields an increase in fluorescence signal. The assay was conducted in 20 μl total volume of assay buffer (50 mM Tris-HCl, pH 7.8, 0.5 mM EDTA, 0.01% Bovine Serum Albumin, 1 mM DTT, 0.01% Tween-20), and 0.05 nM USP1/UAF1 enzyme. Reaction was initiated by addition of 150 nM Ubiquitin-rhodamine (Boston Biochem) substrate.
Compounds of the Disclosure, dissolved in DMSO were tested in dose response format, beginning at […].
The example compounds listed below were added to enzyme/assay buffer mix and incubated 10 min. Substrate mix was added, and reaction mix was read in kinetic mode for 30 min at Ex480/Em540 and IC50 response curves were plotted.
Data for all assay formats was calculated as percent inhibition compared with control wells. Percent inhibition was calculated using the following equation: % inhibition=100×[1−(X−min)/(max−min)], where X is the raw data readout, min is the average of the no enzyme control wells (n=32), max is the average of the DMSO control well (n=32). IC50 values were calculated using the standard four parameter curve fitting algorithm in either Prism GraphPad (La Jolla, Calif.) software, or Collaborative Drug Discovery (Burlingame, Calif.) CDD Vault. See Chem. Biol. 20(1): 55-62 (Jan. 24, 2013); Bioorg. Med. Chem. Lett. 23(20): 5660-5666 (Oct. 15, 2013).
As usually defined, the IC50 is the concentration that inhibits the measured activity by half. Turning to `Cc1nn(C)c(C)c1-c1ccc(CN2C(=O)CCn3nc(-c4c(Cl)cnn4C(C)C)cc32)cc1Cl` [Example 289], the IC50 is more than 500 nM. For `COc1cn(C)nc1-c1ccc(CN2C(=O)CCn3nc(-c4c(Cl)cnn4C(C)C)cc32)cc1Cl` [Example 292] the value was 100 to 500 nM; for `COc1ccnnc1-c1ccc(CN2C(=O)CCn3nc(-c4c(Cl)cnn4C(C)C)cc32)cc1Cl` [Example 293], more than 500 nM. For `COc1ncnc(C2CC2)c1-c1nc2n(n1)CCC(=O)N2Cc1ccc(-c2ncccc2OC(C)C)c(Cl)c1` [Example 295] the value was 100 to 500 nM.

Turning to `CC(C)n1cc(F)nc1-c1ccc(CN2C(=O)CCn3nc(-c4c(Cl)cnn4C(C)C)cc32)cc1Cl` [Example 297], the IC50 lay within 100 to 500 nM.

As to `COc1c(C)ccnc1-c1ccc(CN2C(=O)CCn3nc(-c4c(Cl)cnn4C(C)C)cc32)cc1Cl` [Example 298], the IC50 fell in the range of 100 to 500 nM. Next, `CC(C)n1ncc(Cl)c1-c1cc2n(n1)CCC(=O)N2Cc1ccc(-c2nccc3c2N(C)CCO3)c(Cl)c1` [Example 299]: more than 500 nM; `COCc1cccnc1-c1ccc(CN2C(=O)CCn3nc(-c4c(Cl)cnn4C(C)C)cc32)cc1Cl` [Example 300]: 100 to 500 nM. Next, `COc1cc(C)cnc1-c1ccc(CN2C(=O)CCn3nc(-c4c(Cl)cnn4C(C)C)cc32)cc1Cl` [Example 301]: 100 to 500 nM; `CC(C)Oc1cccnc1-c1ccc(CN2C(=O)CCn3nc(-c4c(Cl)cnn4C(C)C)nc32)cc1Cl` [Example 302]: 100 to 500 nM; `CC(C)n1ccnc1-c1ccc(CN2C(=O)CCn3nc(-c4c(Cl)cnn4C(C)C)cc32)cc1Cl` [Example 303]: 100 to 500 nM. Next, `COc1cccnc1-c1ccc(CN2C(=O)CCn3nc(-c4c(OC)ncnc4C4CC4)nc32)cc1Cl` [Example 306]: 100 to 500 nM; `COc1cccnc1-c1ccc(CN2C(=O)CCn3nc(-c4c(OC)ncnc4C4CC4)nc32)cc1F` [Example 308]: 100 to 500 nM. `COc1cc(CN2C(=O)CCn3nc(-c4c(Cl)cnn4C(C)C)cc32)ccc1-c1ncccc1Cl` [Example 311]: the IC50 was more than 500 nM.

`COc1cccnc1-c1ccc(CN2C(=O)CCn3nc(-c4c(OC)ncnc4C4CC4)cc32)cc1Cl` [Example 313]: the IC50 was in the range of 100 to 500 nM. Next, `CCNc1ccc(-c2ccc(CN3C(=O)CCn4nc(-c5c(Cl)cnn5C(C)C)cc43)cc2Cl)nn1` [Example 314]: more than 500 nM; `CC(C)n1cnc(-c2ccc(CN3C(=O)CCn4nc(-c5c(Cl)cnn5C(C)C)cc43)cc2Cl)c1` [Example 315]: more than 500 nM; `CC(C)n1ncc(Cl)c1-c1cc2n(n1)CCC(=O)N2Cc1ccc(-c2nc(C(F)(F)F)ccc2F)c(Cl)c1` [Example 316]: 100 to 500 nM.

Consider `COc1cccnc1-c1ccc(CN2C(=O)CCn3nc(-c4c(OC)ncnc4C4CC4)cc32)cc1F` [Example 317], for which the IC50 was 100 to 500 nM.

In the case of `COc1cncnc1-c1ccc(CN2C(=O)CCn3nc(-c4c(Cl)cnn4C(C)C)cc32)cc1Cl` [Example 318], the IC50 was more than 500 nM.

For `COc1ccc(-c2ccc(CN3C(=O)CCn4nc(-c5c(Cl)cnn5C(C)C)cc43)cc2Cl)nn1` [Example 319], the IC50 was more than 500 nM. Next, `CC(C)n1ncc(Cl)c1-c1cc2n(n1)CCC(=O)N2Cc1ccc(-c2ccn(S(=O)(=O)N(C)C)n2)c(Cl)c1` [Example 320]: 100 to 500 nM; `CC(C)n1ncc(Cl)c1-c1nc2n(n1)CCC(=O)N2Cc1ccc(-c2ncccc2OCC(F)F)cc1` [Example 322]: 100 to 500 nM. For `CCn1cc(C(F)(F)F)nc1-c1ccc([C@@H](C)N2C(=O)CCn3nc(-c4c(C#N)cnn4C(C)C)cc32)cc1F` [Example 326, (R)-5-(4-(1-(4-(1-ethyl-4-(trifluoromethyl)-1H-imidazol-2-yl)-3-fluorophenyl)ethyl)-5-oxo-4,5,6,7-tetrahydropyrazolo[1,5-α]pyrimidin-2-yl)-1-isopropyl-1H-pyrazole-4-carbonitrile] the value was 100 to 500 nM; for `CCn1cc(C(F)(F)F)nc1-c1ccc(CN2C(=O)CCn3nc(-c4c(OC(F)F)cnn4C(C)C)cc32)cc1F` [Example 329, 2-(4-(difluoromethoxy)-1-isopropyl-1H-pyrazol-5-yl)-4-(4-(1-ethyl-4-(trifluoromethyl)-1H-imidazol-2-yl)-3-fluorobenzyl)-6,7-dihydropyrazolo[1,5-α]pyrimidin-5(4H)-one], 100 to 500 nM; for `CC(C)n1cc(C(F)(F)F)nc1-c1ccc(Cn2c(=O)ccn3nc(-c4c(OC(F)F)ncnc4C4CC4)nc23)cc1` [Example 344, 2-(4-cyclopropyl-6-(difluoromethoxy)pyrimidin-5-yl)-4-(4-(1-isopropyl-4-(trifluoromethyl)-1H-imidazol-2-yl)benzyl)-[1,2,4]triazolo[1,5-a]pyrimidin-5(4H)-one], less than 100 nM. Take `CCn1cc(C(F)(F)F)nc1-c1cnc(CN2C(=O)CCn3nc(-c4c(Cl)cnn4C(C)C)cc32)nc1` [Example 354, 2-(4-chloro-1-isopropyl-1H-pyrazol-5-yl)-4-((5-(1-ethyl-4-(trifluoromethyl)-1H-imidazol-2-yl)pyrimidin-2-yl)methyl)-6,7-dihydropyrazolo[1,5-α]pyrimidin-5(4H)-one]: the IC50 was more than 500 nM.

Consider `CCn1cc(C(F)(F)F)nc1-c1ccc(N(C)C2CCCc3nn(-c4ccccc4C(C)C)cc32)cc1F` (stereo not drawn) [Example 356, N-(4-(1-ethyl-4-(trifluoromethyl)-1H-imidazol-2-yl)-3-fluorophenyl)-2-(2-isopropylphenyl)-N-methyl-4,5,6,7-tetrahydro-2H-indazol-4-amine], for which the IC50 was 100 to 500 nM. Next, `CCn1cc(C(F)(F)F)nc1-c1ccc(CC2NCCn3nc(-c4c(Cl)cnn4C(C)C)cc32)cc1` (stereo not drawn) [Example 359, 2-(4-chloro-1-isopropyl-1H-pyrazol-5-yl)-4-(4-(1-ethyl-4-(trifluoromethyl)-1H-imidazol-2-yl)benzyl)-4,5,6,7-tetrahydropyrazolo[1,5-α]pyrazine]: 100 to 500 nM. Next, `CCn1cc(C(F)(F)F)nc1-c1ccc(CC2NCCn3nc(-c4c(OC)ncnc4C4CC4)cc32)cc1` (stereo not drawn) [Example 361, 2-(4-cyclopropyl-6-methoxypyrimidin-5-yl)-4-(4-(1-ethyl-4-(trifluoromethyl)-1H-imidazol-2-yl)benzyl)-4,5,6,7-tetrahydropyrazolo[1,5-a]pyrazine]: 100 to 500 nM; `CC(CF)n1cc(C(F)(F)F)nc1-c1ccc(CN2C(=O)CCn3nc(-c4c(OC(F)F)ncnc4C4CC4)nc32)cc1` (stereo not drawn) [Example 366, 2-(4-cyclopropyl-6-(difluoromethoxy)pyrimidin-5-yl)-4-(4-(1-(1-fluoropropan-2-yl)-4-(trifluoromethyl)-1H-imidazol-2-yl)benzyl)-6,7-dihydro-[1,2,4]triazolo[1,5-a]pyrimidin-5(4H)-one]: less than 100 nM; `O=C1CCn2nc(-c3c(OC(F)F)ncnc3C3CC3)nc2N1Cc1ccc(-c2nc(C(F)(F)F)cn2CCF)cc1` [Example 367, 2-(4-cyclopropyl-6-(difluoromethoxy)pyrimidin-5-yl)-4-(4-(1-(2-fluoroethyl)-4-(trifluoromethyl)-1H-imidazol-2-yl)benzyl)-6,7-dihydro-[1,2,4]triazolo[1,5-a]pyrimidin-5(4H)-one]: less than 100 nM.

For the compound `Cn1cc(C(F)(F)F)nc1-c1ccc(CN2C(=O)CCn3nc(-c4c(OC(F)F)ncnc4C4CC4)nc32)cc1` [Example 368, 2-(4-cyclopropyl-6-(difluoromethoxy)pyrimidin-5-yl)-4-(4-(1-methyl-4-(trifluoromethyl)-1H-imidazol-2-yl)benzyl)-6,7-dihydro-[1,2,4]triazolo[1,5-a]pyrimidin-5(4H)-one], the IC50 is less than 100 nM. For `CC(C)n1cc(C(F)(F)F)nc1-c1ccc(CN2C(=O)CCn3nc(-c4c(OC(F)F)ncnc4C4CC4)nc32)cc1` [Example 369, 2-(4-cyclopropyl-6-(difluoromethoxy)pyrimidin-5-yl)-4-(4-(1-isopropyl-4-(trifluoromethyl)-1H-imidazol-2-yl)benzyl)-6,7-dihydro-[1,2,4]triazolo[1,5-a]pyrimidin-5(4H)-one] the value was less than 100 nM; for `COc1ncnc(C2CC2)c1-c1nc2n(n1)CCC(=O)N2C(C)c1ccc(-n2nc(C(F)(F)F)cc2OC)cc1` (stereo not drawn) [Example 372, 2-(4-cyclopropyl-6-methoxypyrimidin-5-yl)-4-(1-(4-(5-methoxy-3-(trifluoromethyl)-1H-pyrazol-1-yl)phenyl)ethyl)-6,7-dihydro-[1,2,4]triazolo[1,5-a]pyrimidin-5(4H)-one], less than 100 nM; for `CCn1cc(C(F)(F)F)nc1-c1ccc(CN2C(=O)CCn3nc(-c4c(C5CC5)ccnc4OC(F)F)nc32)cc1` [Example 373, 2-(4-cyclopropyl-2-(difluoromethoxy)pyridin-3-yl)-4-(4-(1-ethyl-4-(trifluoromethyl)-1H-imidazol-2-yl)benzyl)-6,7-dihydro-[1,2,4]triazolo[1,5-a]pyrimidin-5(4H)-one], 100 to 500 nM.
